Test results: patent US8507538B2, “Selective heterocyclic sphingosine 1 phosphate receptor modulators” (Receptos, Inc., priority 2009, dated 2013)

target: S1P1/EDG1 (Homo sapiens, UniProt P21453); test: S1P1 CRE-bla CHOK1 reporter assay (inhibition of Forskolin induced cAMP); format: cell-based; settings: agonist activity range, Table 2; read-out: S1P1 ACTIVITY
Description: A mammalian expression plasmid containing S1P1/EDG1 cloned into pcDNA3.1 was purchased from Missouri S&T cDNA Resource Centre. The nucleotide and amino acid sequence of human S1P1/EDG1 are published in Hla and Maciag (J Biol Chem, 265(1990), 9308-9313). S1P1/pcDNA3.1 was transfected into the CRE-bla CHO K1 (Invitrogen) cell line, and stable single cell clones were selected using standard techniques. Expression of functional SIP1/EDG1 receptor was confirmed by cell surface FACS with a S1P1 antibody (R&D Systems, clone 218713) and S1P-mediated inhibition of Forskolin induced cAMP.
Cells were seeded into 384-well black wall/clear bottom plates at 10^4 cells/well/19.5 μl assay media (DMEM-phenol free, 0.5% charcoal/dextran stripped serum, 2 mM glutamine, 0.1 mM NEAA, 1 mM Na-Pyruvate, 25 mM Hepes) and incubated for 18 hrs at 37° C. in 5% CO2. Dose response curves (10-point) were generated in 10 mM Hepes, 0.1% Pluronic F127, in the presence of Forskolin. Cells were treated with 0.5 μl compound in the presence of 2 μM Forskolin for 4 hrs at 37° C. The FRET-based β-lactamase fluorescent substrate (LiveBLAzer™ FRET B/G Loading Kit CC4-AM; Invitrogen) was prepared according to manufacturer's directions, and incubated with cells for 2 hrs at room temperature. Plates were read at Ex:410/Em:458 and Ex:410/Em:522, and the response ratio determined. Data was analyzed by non-linear regression to determine the EC50 for inhibition of Forskolin induced cAMP.

Chain of S1P1/EDG1 (P21453 whole entry): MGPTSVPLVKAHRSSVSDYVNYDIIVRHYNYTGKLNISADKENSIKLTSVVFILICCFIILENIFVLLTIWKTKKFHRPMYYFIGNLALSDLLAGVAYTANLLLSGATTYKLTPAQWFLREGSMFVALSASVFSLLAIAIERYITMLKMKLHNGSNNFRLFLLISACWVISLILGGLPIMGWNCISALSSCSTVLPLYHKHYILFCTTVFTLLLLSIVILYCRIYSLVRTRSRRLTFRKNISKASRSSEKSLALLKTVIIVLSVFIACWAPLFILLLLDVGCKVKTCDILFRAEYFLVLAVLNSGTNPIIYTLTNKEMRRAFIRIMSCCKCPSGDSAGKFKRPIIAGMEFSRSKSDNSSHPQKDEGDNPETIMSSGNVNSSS

| Compound | EC50 [nM] |
| --- | --- |
| CC(C)Oc1ccc(-c2ncc(-c3cccc4c3CC[C@@H]4NC(=O)CN)s2)cc1C#N [Compound 77] | 0.05 to 0.5 |
| CC(C)Oc1ccc(-c2ncc(-c3cccc4c3CC[C@@H]4NC(=O)CN)s2)cc1C#N [Compound 78] | 0.5 to 5 |
| CC(C)Oc1ccc(-c2ncc(-c3cccc4c3CC[C@@H]4NC(=O)[C@H](N)CO)s2)cc1C#N [Compound 79] | 0.05 to 0.5 |
| CC(C)Oc1ccc(-c2ncc(-c3cccc4c3CC[C@@H]4NC(=O)CN(C)C)s2)cc1C#N [Compound 81] | 0.5 to 5 |
| CC(C)Oc1ccc(-c2ncc(-c3cccc4c3CC[C@@H]4NC(=O)Cc3ccccc3)s2)cc1C#N [Compound 83] | > 5 |
| CC(C)Oc1ccc(-c2ncc(-c3cccc4c3CC[C@@H]4NC(=O)CN3CCCC3)s2)cc1C#N [Compound 85] | > 5 |
| CC(=O)N[C@H]1CCc2c(-c3cnc(-c4ccc(OC(C)C)c(C#N)c4)s3)cccc21 [Compound 87] | 0.05 to 0.5 |
| CC(=O)N[C@H]1CCc2c(-c3cnc(-c4ccc(OC(C)C)c(C#N)c4)s3)cccc21 [Compound 88] | 0.5 to 5 |
| COC(=O)N[C@H]1CCc2c(-c3cnc(-c4ccc(OC(C)C)c(C#N)c4)s3)cccc21 [Compound 89] | 0.5 to 5 |
| CC(C)Oc1ccc(-c2ncc(-c3cccc4c3CC[C@@H]4NCCO)s2)cc1C#N [Compound 92, (S)-5-(5-(1-((2-hydroxyethyl)amino)-2,3-dihydro-1H-inden-4-yl)thiazol-2-yl)-2-isopropoxybenzonitrile] | 0.5 to 5 |
| COCCN[C@H]1CCc2c(-c3cnc(-c4ccc(OC(C)C)c(C#N)c4)s3)cccc21 [Compound 93] | 0.5 to 5 |
| CC(C)Oc1ccc(-c2ncc(-c3cccc4c3CCC4N[C@H](C)CO)s2)cc1C#N (stereo partly drawn) [Compound 95] | 0.5 to 5 |
| CC(C)Oc1ccc(-c2ncc(-c3cccc4c3CC[C@@H]4NCC(=O)O)s2)cc1C#N [Compound 97, (S)-2-((4-(2-(3-cyano-4-isopropoxyphenyl)thiazol-5-yl)-2,3-dihydro-1H-inden-1-yl)amino)acetic acid] | 0.05 to 0.5 |
| CC(C)Oc1ccc(-c2ncc(-c3cccc4c3CC[C@@H]4NCC(=O)N(C)C)s2)cc1C#N [Compound 98] | 0.5 to 5 |
| COC(=O)CN[C@H]1CCc2c(-c3cnc(-c4ccc(OC(C)C)c(C#N)c4)s3)cccc21 [Compound 99, (S)-methyl 2-((4-(2-(3-cyano-4-isopropoxyphenyl)thiazol-5-yl)-2,3-dihydro-1H-inden-1-yl)amino)acetate] | 0.5 to 5 |
| CC(C)Oc1ccc(-c2ncc(-c3cccc4c3CC[C@@H]4NCC(=O)N3CCCC3)s2)cc1C#N [Compound 100] | 0.05 to 0.5 |
| CC(C)Oc1ccc(-c2ncc(-c3cccc4c3CC[C@@H]4NCC(=O)N3CCCC3)s2)cc1C#N [Compound 101] | > 5 |
| CC(C)Oc1ccc(-c2ncc(-c3cccc4c3CC[C@@H]4NCC(=O)N3CC[C@H](O)C3)s2)cc1C#N [Compound 103] | 0.05 to 0.5 |
| CC(C)Oc1ccc(-c2ncc(-c3cccc4c3CC[C@@H]4NCC(=O)N3CC[C@H](O)C3)s2)cc1C#N [Compound 104, 5-(5-((S)-1-((2-((S)-3-hydroxypyrrolidin-1-yl)-2-oxoethyl)amino)-2,3-dihydro-1H-inden-4-yl)thiazol-2-yl)-2-isopropoxybenzonitrile] | 0.5 to 5 |
| CC(C)Oc1ccc(-c2ncc(-c3cccc4c3CC[C@@H]4NCC(=O)N3CC[C@H](O)C3)s2)cc1C#N [Compound 105] | > 5 |
| CC(C)Oc1ccc(-c2ncc(-c3cccc4c3CC[C@@H]4NCC(=O)N3CCC[C@H](O)C3)s2)cc1C#N [Compound 106] | > 5 |
| CC(C)Oc1ccc(-c2ncc(-c3cccc4c3CC[C@@H]4NCC(=O)N3CCNCC3)s2)cc1C#N [Compound 107] | 0.5 to 5 |
| CC(C)Oc1ccc(-c2ncc(-c3cccc4c3CC[C@@H]4NCC(=O)N3CCNCC3)s2)cc1C#N [Compound 108] | > 5 |
| CC(C)Oc1ccc(-c2ncc(-c3cccc4c3CC[C@@H]4NCc3ncc[nH]3)s2)cc1C#N [Compound 110, (S)-5-(5-(1-(((1H-imidazol-2-yl)methyl)amino)-2,3-dihydro-1H-inden-4-yl)thiazol-2-yl)-2-isopropoxybenzonitrile] | 0.5 to 5 |
| CC(C)Oc1ccc(-c2ncc(-c3cccc4c3CC[C@@H]4NS(C)(=O)=O)s2)cc1C#N [Compound 112, (S)-N-(4-(2-(3-cyano-4-isopropoxyphenyl)thiazol-5-yl)-2,3-dihydro-1H-inden-1-yl)methanesulfonamide] | 0.05 to 0.5 |
| CCS(=O)(=O)N[C@H]1CCc2c(-c3cnc(-c4ccc(OC(C)C)c(C#N)c4)s3)cccc21 [Compound 113] | 0.05 to 0.5 |
| COCCS(=O)(=O)N[C@H]1CCc2c(-c3cnc(-c4ccc(OC(C)C)c(C#N)c4)s3)cccc21 [Compound 115] | 0.05 to 0.5 |

| Compound | EC50 [nM] |
| --- | --- |
| COCCS(=O)(=O)N[C@H]1CCc2c(-c3cnc(-c4ccc(OC(C)C)c(C#N)c4)s3)cccc21 [Compound 116] | 0.5 to 5 |
| CC(C)Oc1ccc(-c2ncc(-c3cccc4c3CC[C@@H]4NS(=O)(=O)C3CC3)s2)cc1C#N [Compound 117] | 0.05 to 0.5 |
| CC(C)Oc1ccc(-c2ncc(-c3cccc4c3CC[C@@H]4NS(=O)(=O)CCN3CCOCC3)s2)cc1C#N [Compound 121] | 0.5 to 5 |
| CC(C)Oc1ccc(-c2ncc(-c3cccc4c3CC[C@@H]4NS(=O)(=O)CCN(C)C)s2)cc1C#N [Compound 123] | 0.5 to 5 |
| CNCCS(=O)(=O)N[C@H]1CCc2c(-c3cnc(-c4ccc(OC(C)C)c(C#N)c4)s3)cccc21 [Compound 125] | 0.5 to 5 |
| CC(C)Oc1ccc(-c2ncc(-c3cccc4c3CC[C@@H]4NS(=O)(=O)CCN3CCC3)s2)cc1C#N [Compound 127] | 0.5 to 5 |
| CC(C)Oc1ccc(-c2ncc(-c3cccc4c3CC[C@@H]4NS(=O)(=O)CCN3CCC3)s2)cc1C#N [Compound 128] | > 5 |
| CC(C)Oc1ccc(-c2ncc(-c3cccc4c3CC[C@@H]4NS(=O)(=O)CCN3CCCC3)s2)cc1C#N [Compound 129] | > 5 |
| CC(C)Oc1ccc(-c2ncc(-c3cccc4c3CC[C@@H]4NS(=O)(=O)CCN3CCCC3)s2)cc1C#N [Compound 130] | 0.5 to 5 |
| CC(C)Oc1ccc(-c2ncc(-c3cccc4c3CC[C@@H]4NS(=O)(=O)CCN3CC[C@H](O)C3)s2)cc1C#N [Compound 131] | 0.5 to 5 |
| CC(C)Oc1ccc(-c2ncc(-c3cccc4c3CC[C@@H]4NS(=O)(=O)CCN3CC[C@H](N)C3)s2)cc1C#N [Compound 135] | > 5 |
| CC(C)Oc1ccc(-c2ncc(-c3cccc4c3CC[C@@H]4NS(=O)(=O)CCN3CC[C@H](N(C)C)C3)s2)cc1C#N [Compound 137] | > 5 |
| CC(C)Oc1ccc(-c2ncc(-c3cccc4c3CC[C@@H]4NS(=O)(=O)CCN3CC[C@@H](N(C)C)C3)s2)cc1C#N [Compound 138] | > 5 |
| CC(C)Oc1ccc(-c2ncc(-c3cccc4c3CC[C@@H]4NS(=O)(=O)CCN3CCCCC3)s2)cc1C#N [Compound 139] | > 5 |
| CC(C)Oc1ccc(-c2ncc(-c3cccc4c3CC[C@@H]4NS(=O)(=O)CCN3CCC[C@H](O)C3)s2)cc1C#N [Compound 142] | 0.5 to 5 |
| CC(C)Oc1ccc(-c2ncc(-c3cccc4c3CC[C@@H]4NS(=O)(=O)CCN3CCC[C@H](O)C3)s2)cc1C#N [Compound 144] | 0.5 to 5 |
| CC(C)Oc1ccc(-c2ncc(-c3cccc4c3CC[C@@H]4NS(=O)(=O)CCN3CCC(O)CC3)s2)cc1C#N [Compound 145] | > 5 |
| CC(C)Oc1ccc(-c2ncc(-c3cccc4c3CC[C@@H]4NS(=O)(=O)CCN3CCC(O)CC3)s2)cc1C#N [Compound 146] | 0.5 to 5 |
| COC(=O)CC1CCN(CCS(=O)(=O)N[C@H]2CCc3c(-c4cnc(-c5ccc(OC(C)C)c(C#N)c5)s4)cccc32)CC1 [Compound 147] | 0.5 to 5 |
| CC(C)Oc1ccc(-c2ncc(-c3cccc4c3CC[C@@H]4NS(=O)(=O)CCN3CCC(CC(=O)O)CC3)s2)cc1C#N [Compound 148] | 0.5 to 5 |
| CC(C)Oc1ccc(-c2ncc(-c3cccc4c3CC[C@@H]4NS(=O)(=O)CCN3CCC(CO)CC3)s2)cc1C#N [Compound 149] | 0.5 to 5 |
| CC(C)Oc1ccc(-c2ncc(-c3cccc4c3CC[C@@H]4NS(=O)(=O)CCN3CC(O)C3)s2)cc1C#N [Compound 150] | 0.5 to 5 |
| CC(C)Oc1ccc(-c2ncc(-c3cccc4c3CC[C@@H]4NS(=O)(=O)CCN3CCNCC3)s2)cc1C#N [Compound 151] | > 5 |
| CC(C)Oc1ccc(-c2ncc(-c3cccc4c3CC[C@@H]4NS(=O)(=O)CCN3CCC(N(C)C)CC3)s2)cc1C#N [Compound 153] | > 5 |
| COC(=O)CS(=O)(=O)N[C@H]1CCc2c(-c3cnc(-c4ccc(OC(C)C)c(C#N)c4)s3)cccc21 [Compound 155, (S)-methyl 2-(N-(4-(2-(3-cyano-4-isopropoxyphenyl)thiazol-5-yl)-2,3-dihydro-1H-inden-1-yl)sulfamoyl)acetate] | 0.5 to 5 |
| COC(=O)CCS(=O)(=O)N[C@H]1CCc2c(-c3cnc(-c4ccc(OC(C)C)c(C#N)c4)s3)cccc21 [Compound 156] | 0.05 to 0.5 |
| CC(C)Oc1ccc(-c2ncc(-c3cccc4c3CC[C@@H]4NS(=O)(=O)CC(=O)O)s2)cc1C#N [Compound 159, (S)-2-(N-(4-(2-(3-cyano-4-isopropoxyphenyl)thiazol-5-yl)-2,3-dihydro-1H-inden-1-yl)sulfamoyl)acetic acid] | 0.05 to 0.5 |
